For orientation: solubility means the concentration that dissolves in the medium under given conditions. Read a low solubility as little dissolved substance. By pKa is commonly meant the negative logarithm of the acid dissociation constant.

Values after ≈ are worked out from the molar mass of the structure shown. Values joined by “and” are separate entries in the source; they are usually repeats but may differ in a detail not shown here. Equal values may be shown once. Read-outs that look alike come from different tables or passages of the source.

Data set [1] in a line: Measuring spectral characteristics (absorption and emission maxima, extinction coefficients). The data set is classed as physicochemical. As for the experimental part: (§1) To measure spectral characteristics of some compounds with the formula I weighted portions of compounds p-NH2-BDI-BF2, p-dimethylamino-BDI-BF2, p-diethylamino-BDI-BF2, p-HOBDI-BF2, di-F-p-HOBDI-BF2, p-diethylamino-BDI-dimethylaminoethenyl-BF2 and p-HOBDI-dimethylaminoethenyl-BF2 were dissolved in water, ethanol and acetonitrile. Absorption spectra were measured on Varian Cary 100 Bio spectrophotometer, fluorescence spectra were measured on Varian Cary Eclipse scanning spectrofluorometer.
The values of absorption and emission maxima and molar extinction coefficients for examples of compounds with the formula I in the indicated solvents are listed in a Table 2. Emission peaks of the investigated compounds settle into a rather wide range from 485 nm for p-HOBDI-BF2 to 598 nm for p-diethylamino-BDI-dimethylamino-ethenyl-BF2.

A short description of data set [2]: Quantum yield of fluorescence. The class given is physicochemical. As for the experimental part:
as §1
The compounds p-NH2-BDI-BF2, p-HOBDI-BF2 (anionic form), di-Fp-HOBDI-BF2 (anionic form), p-diethylamino-BDI-dimethylaminoethenyl-BF2, p-HOBDI-dimethylaminoethenyl-BF2 (anionic form) have rather high quantum yields of fluorescence in water solutions.

Data set [3] can be described thus: Determination of solubility in water. Conditions: thermodynamic from solid. The class given is physicochemical. The protocol:
To determine the solubility in water of compounds an excess amount of analyzed substance was put in a known volume of a solvent and stirred for 5 hours at r.t. The obtained mixture was centrifuged, and the concentration of a compound in mother liquor was measured with spectrophotometric method on the base of molar extinction coefficients data.

Data set [4] is described as follows: Photoacidity: acidity constants of ground and excited states. The class given is physicochemical. An excerpt:
Photoacidity is an ability to dissociate with formation of H^+ ion under the action of visible light. Photoacidity is characterized by constants of acidity of ground and excited states. Förster's equation describes the relationship between acidity constants of ground and excited states and energy of transfer between the states.
For compounds of the formula I, containing phenolic OH-group, high photoacidity—an ability to dissociate with formation of H^+ ion under the action of visible light—is a distinctive feature. […] (^1)((Z)-4-(2-(difluoroboryl)-3,5-difluoro-4-hydroxybenzylidene)-1,2-dimethyl-1H-imidazole-5(4H)-one)

Data set [5] can be described thus: Chemical stability at high pH. The class given is physicochemical. To be noted: pH 11, 70° C., 2 hours. An excerpt:
Compound of the general formula I differ from the majority of fluorescent dyes because of their high resistance to the action of different chemical factors—nucleophiles and high pH. […] It should be noted, that long-time heating in alkaline conditions may result in exchange of fluorine atoms from difluoroboryl residue to hydroxyl groups, however no significant change in absorption and fluorescence spectra is observed.

Data set [6] relates to cell membranes of HeLa Kyoto and HEK293 cell lines. The data set is described as follows: Staining of cell membranes and comparison of photostability with EGFP. The data set is classed as cell-based, human. As for the experimental part:
Human cell cultures HeLa and HEK293 were grown in standart conditions and analyzed by wide field fluorescent and confocal laser scanning microscopy (excitation at 488 nm, detection at 500-540 nm).
The cell staining of the cells, temporarily expressing chimer protein EGFP-XRCC (nuclear localization), was carried out by p-diethylamino-BDI-BF2 in concentration 5 μM to compare fluorescent properties of the compound p-diethylamino-BDI-BF2 to the green fluorescent protein EGFP.

Data set [7] in a line: Measuring spectral characteristics (absorption and emission maxima, extinction coefficients). The class given is physicochemical. To be noted: excitation at 488 nm, detection at 500-540 nm.

`CC1=N/C(=C\c2ccc(O)cc2B(F)F)C(=O)N1C` [p-HOBDI-BF2, (Z)-4-(2-(difluoroboryl)-4-hydroxybenzylidene)-1,2-dimethyl-1H-imidazole-5(4H)-one]: the Abs. peak in data set [1] (acetonitrile, anionic form) was determined as 521 nm; in data set [1] (acetonitrile, neutral form) it was 402 nm; in data set [1] (ethanol, anionic form), 512 nm; in data set [1] (ethanol, neutral form), 416 nm; in data set [1] (water, anionic form), 485 nm; in data set [1] (water, neutral form), 404 nm. Besides, the Emis. peak in data set [1] (acetonitrile, anionic form) stood at 540 nm; in data set [1] (acetonitrile, neutral form), 469 nm; in data set [1] (ethanol, anionic form), 532 nm; in data set [1] (ethanol, neutral form) it was 483 nm; in data set [1] (water, anionic form), 520 nm; in data set [1] (water, neutral form), 485 nm. In addition, the ext. coef. was found to be 31000 M⁻¹ cm⁻¹ in data set [1] (acetonitrile, neutral form); 55000 M⁻¹ cm⁻¹ in data set [1] (ethanol, anionic form); 25000 M⁻¹ cm⁻¹ in data set [1] (ethanol, neutral form); 47000 M⁻¹ cm⁻¹ in data set [1] (water, anionic form); 26000 M⁻¹ cm⁻¹ in data set [1] (water, neutral form). Further, the “shift of emission and absorption spectra with change of more polar solvent (water) to less polar (ethanol, acetonitrile)” value in data set [1] (anionic form) is “bathochromic shift”; in data set [1] (neutral form) it was “hypsochromic shift”. Besides, the “bathochromic shift of emission and absorption spectra relative to p-HOBDI” value in data set [1] (different solvents) was 30-40 nm. Also, the “Quantum yield of fluorescence” value in data set [2] (acetonitrile) was found to be 0.73; in data set [2] (acetonitrile, anionic form) it was 0.73; in data set [2] (water, anionic form), 0.54. For the same molecule, the fluorescence lifetime in data set [2] (acetonitrile) is on record as 3.2 ns. Besides, the solubility at 5 h in data set [3] (acidic and neutral pH values, r.t.) was about 1000 µM (≈ 264 µg/mL); in data set [3] (acidic and neutral values of pH), 1 µM (≈ 0.264 µg/mL). Moreover, the pKa in data set [4] (excited state) was found to be 2; in data set [4] (ground state, phenol group) it was 6.4. Moreover, in data set [5], the “effect of incubation on absorption and emission spectra” value is on record as “doesn't affect significantly”.
For the molecule `CCN(CC)c1ccc(/C=C2\N=C(C)N(C)C2=O)c(B(F)F)c1` [p-diethylamino-BDI-BF2, (Z)-4-(4-(diethylamino)-2-(difluoroboryl)benzylidene)-1,2-dimethyl-1H-imidazole-5(4H)-one], in data set [1], the “shift of emission and absorption spectra with change of more polar solvent (water) to less polar (ethanol, acetonitrile)” value is listed as “hypsochromic shift”. The Abs. peak in data set [1] (acetonitrile) is 493 nm; in data set [1] (ethanol) it was 506 nm; in data set [1] (water), 518 nm and 514 nm. The Emis. peak in data set [1] (acetonitrile) came out at 553 nm; in data set [1] (ethanol) it was 558 nm; in data set [1] (water), 562 nm. Also, the results for the ext. coef. in data set [1] (acetonitrile), in data set [1] (ethanol) and in data set [1] (water) were 54000 M⁻¹ cm⁻¹, 59000 M⁻¹ cm⁻¹ and 54000 M⁻¹ cm⁻¹, respectively. In addition, the “Quantum yield of fluorescence” value in data set [2] (acetonitrile) is reported as 0.34; in data set [2] (ethanol), 0.22; in data set [2] (in organic solvents) it was 0.2-0.35; in data set [2] (water), 0.05. Moreover, the “accumulation in cell membranes” value in data set [6] is “accumulated in cell membranes”. Moreover, the “fluorescence after addition to the cell medium” value in data set [6] (1-5 μM, excitation 488 nm, detection 500-540 nm) was “bright yellow-green fluorescence was detected, associated with intracellular membrane structues and lipid drops”. For the same molecule, the “difference in the brightness of fluorescence in water and organic phases” value in data set [7] is reported as “more than 10 times”.

These data come from patent US9133220B2, “Boron-containing 5-arylidene-3,5-dihydro-4H-imidazol-4-ones” (Evrogen Joint Stock Company, priority 2012, dated 2015).
